Laboratory results as given in patent publication US20260027116A1, “Methods of Treating Chronic Graft-Versus-Host Disease Following Allogeneic Hematopoietic Stem Cell Transplantation” (Kadmon Corporation, LLC, priority 2022, published 2026).

What was measured:
[1] = system: lung function; assay: Example 1: percent predicted HGB corrected DLco change from baseline; type: in vivo, human; conditions: mean (SD)
Description: Change From Baseline in Percent Predicted Hemoglobin (HGB) Corrected Diffusing Capacity of Lung for Carbon Monoxide (DLco) at Each Specified Time Points. DLco is a measurement of the ability of the lungs to transfer gases from the air to the blood. Change from baseline in diffusing capacity of the lung for carbon monoxide (percent predicted hemoglobin level corrected) was reported for this measure. Baseline value was defined as valid and last non-missing value obtained within 28 days prior to participant receiving first study medication. EOT visit was performed within 3 days after the participant's last dose of study drug. […] Analysis was performed on mITT population. Here, ‘number analyzed’=participants with available data for each specified category. Here, ‘O’ in the number analyzed field signifies that none of the participants were available for the analysis at the specified time points.

[2] = molecular target: P-gp (Homo sapiens, UniProt P08183); assay: transporter inhibition in vitro; type: in vitro ADME; conditions: at clinically relevant concentrations
Chain of P-gp (P08183 whole entry): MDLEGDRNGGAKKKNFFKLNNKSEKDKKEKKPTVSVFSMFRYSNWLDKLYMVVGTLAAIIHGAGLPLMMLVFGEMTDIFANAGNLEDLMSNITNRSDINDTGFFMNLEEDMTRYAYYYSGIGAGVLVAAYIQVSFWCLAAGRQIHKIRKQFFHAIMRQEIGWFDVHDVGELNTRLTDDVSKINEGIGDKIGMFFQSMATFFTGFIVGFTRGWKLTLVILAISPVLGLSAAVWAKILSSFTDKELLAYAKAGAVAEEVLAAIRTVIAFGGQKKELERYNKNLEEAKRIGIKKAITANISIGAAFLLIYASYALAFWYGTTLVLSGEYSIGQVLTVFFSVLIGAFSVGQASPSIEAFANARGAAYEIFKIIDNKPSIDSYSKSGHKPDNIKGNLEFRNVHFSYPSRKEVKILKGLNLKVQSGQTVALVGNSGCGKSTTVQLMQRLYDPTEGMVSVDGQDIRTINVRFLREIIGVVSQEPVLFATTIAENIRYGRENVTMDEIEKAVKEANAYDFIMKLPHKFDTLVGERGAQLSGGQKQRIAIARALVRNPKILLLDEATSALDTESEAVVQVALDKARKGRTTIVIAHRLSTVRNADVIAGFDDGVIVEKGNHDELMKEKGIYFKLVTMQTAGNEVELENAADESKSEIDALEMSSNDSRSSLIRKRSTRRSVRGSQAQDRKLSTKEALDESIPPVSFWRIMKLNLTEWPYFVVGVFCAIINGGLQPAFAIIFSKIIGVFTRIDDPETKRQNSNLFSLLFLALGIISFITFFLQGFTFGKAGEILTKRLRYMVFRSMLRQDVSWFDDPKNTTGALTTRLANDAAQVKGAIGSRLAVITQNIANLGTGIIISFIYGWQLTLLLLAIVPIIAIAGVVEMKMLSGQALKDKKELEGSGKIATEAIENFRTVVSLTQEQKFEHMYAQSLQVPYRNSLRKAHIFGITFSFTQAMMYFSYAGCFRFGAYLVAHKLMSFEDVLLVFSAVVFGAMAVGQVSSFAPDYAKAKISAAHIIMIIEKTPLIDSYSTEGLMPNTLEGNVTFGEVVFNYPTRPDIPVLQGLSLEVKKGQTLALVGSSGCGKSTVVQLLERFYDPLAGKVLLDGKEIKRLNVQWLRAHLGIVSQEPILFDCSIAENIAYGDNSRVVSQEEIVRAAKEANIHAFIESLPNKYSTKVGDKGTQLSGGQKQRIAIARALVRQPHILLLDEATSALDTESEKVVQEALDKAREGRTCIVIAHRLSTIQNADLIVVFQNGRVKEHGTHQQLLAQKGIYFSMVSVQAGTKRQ

CC(C)NC(=O)COc1cccc(-c2nc(Nc3ccc4[nH]ncc4c3)c3ccccc3n2)c1 [Belumosudil, 2-{3-[4-(1H-indazol-5-ylamino)-2-quinazolinyl]phenoxy}-N-(propan-2-yl) acetamide]
Change From Baseline in Percent Predicted Hemoglobin (HGB) Corrected Diffusing Capacity of Lung for Carbon Monoxide (DLco) ([1]; Cohort 2: 200 mg BID, Cycle 16, Day 1): −6.618 (15.443) Percent Predicted HGB Corrected DLco | Change From Baseline in Percent Predicted Hemoglobin (HGB) Corrected Diffusing Capacity of Lung for Carbon Monoxide (DLco) ([1]; Cohort 2: 200 mg BID, Cycle 17, Day 1): 8.458 (6.229) Percent Predicted HGB Corrected DLco | Change From Baseline in Percent Predicted Hemoglobin (HGB) Corrected Diffusing Capacity of Lung for Carbon Monoxide (DLco) ([1]; Cohort 2: 200 mg BID, Cycle 18, Day 1): 15.543 (11.753) Percent Predicted HGB Corrected DLco | Change From Baseline in Percent Predicted Hemoglobin (HGB) Corrected Diffusing Capacity of Lung for Carbon Monoxide (DLco) ([1]; Cohort 2: 200 mg BID, Cycle 19, Day 1): 1.824 (8.539) Percent Predicted HGB Corrected DLco | Change From Baseline in Percent Predicted Hemoglobin (HGB) Corrected Diffusing Capacity of Lung for Carbon Monoxide (DLco) ([1]; Cohort 2: 200 mg BID, Cycle 20, Day 1): −14.692 (—) Percent Predicted HGB Corrected DLco | Change From Baseline in Percent Predicted Hemoglobin (HGB) Corrected Diffusing Capacity of Lung for Carbon Monoxide (DLco) ([1]; Cohort 2: 200 mg BID, Cycle 21, Day 1): −10.661 (—) Percent Predicted HGB Corrected DLco | Change From Baseline in Percent Predicted Hemoglobin (HGB) Corrected Diffusing Capacity of Lung for Carbon Monoxide (DLco) ([1]; Cohort 2: 200 mg BID, Cycle 22, Day 1): 3.347 (3.560) Percent Predicted HGB Corrected DLco | Change From Baseline in Percent Predicted Hemoglobin (HGB) Corrected Diffusing Capacity of Lung for Carbon Monoxide (DLco) ([1]; Cohort 2: 200 mg BID, Cycle 23, Day 1): −15.184 (20.181) Percent Predicted HGB Corrected DLco | Change From Baseline in Percent Predicted Hemoglobin (HGB) Corrected Diffusing Capacity of Lung for Carbon Monoxide (DLco) ([1]; Cohort 2: 200 mg BID, Cycle 24, Day 1): −18.095 (—) Percent Predicted HGB Corrected DLco | Change From Baseline in Percent Predicted Hemoglobin (HGB) Corrected Diffusing Capacity of Lung for Carbon Monoxide (DLco) ([1]; Cohort 2: 200 mg BID, Cycle 25, Day 1): 6.289 (2.469) Percent Predicted HGB Corrected DLco | Change From Baseline in Percent Predicted Hemoglobin (HGB) Corrected Diffusing Capacity of Lung for Carbon Monoxide (DLco) ([1]; Cohort 2: 200 mg BID, Cycle 27, Day 1): −9.914 (15.387) Percent Predicted HGB Corrected DLco | Change From Baseline in Percent Predicted Hemoglobin (HGB) Corrected Diffusing Capacity of Lung for Carbon Monoxide (DLco) ([1]; Cohort 2: 200 mg BID, Cycle 29, Day 1): −18.814 (24.960) Percent Predicted HGB Corrected DLco | Change From Baseline in Percent Predicted Hemoglobin (HGB) Corrected Diffusing Capacity of Lung for Carbon Monoxide (DLco) ([1]; Cohort 2: 200 mg BID, Cycle 31, Day 1): −0.800 (17.528) Percent Predicted HGB Corrected DLco | Change From Baseline in Percent Predicted Hemoglobin (HGB) Corrected Diffusing Capacity of Lung for Carbon Monoxide (DLco) ([1]; Cohort 2: 200 mg BID, Cycle 33, Day 1): −5.962 (10.550) Percent Predicted HGB Corrected DLco | Change From Baseline in Percent Predicted Hemoglobin (HGB) Corrected Diffusing Capacity of Lung for Carbon Monoxide (DLco) ([1]; Cohort 2: 200 mg BID, Cycle 35, Day 1): −0.426 (6.677) Percent Predicted HGB Corrected DLco | Change From Baseline in Percent Predicted Hemoglobin (HGB) Corrected Diffusing Capacity of Lung for Carbon Monoxide (DLco) ([1]; Cohort 2: 200 mg BID, Cycle 37, Day 1): −19.228 (—) Percent Predicted HGB Corrected DLco | Change From Baseline in Percent Predicted Hemoglobin (HGB) Corrected Diffusing Capacity of Lung for Carbon Monoxide (DLco) ([1]; Cohort 2: 200 mg BID, Cycle 39, Day 1): −6.813 (12.810) Percent Predicted HGB Corrected DLco | Change From Baseline in Percent Predicted Hemoglobin (HGB) Corrected Diffusing Capacity of Lung for Carbon Monoxide (DLco) ([1]; Cohort 2: 200 mg BID, Cycle 43, Day 1): 8.775 (—) Percent Predicted HGB Corrected DLco | Change From Baseline in Percent Predicted Hemoglobin (HGB) Corrected Diffusing Capacity of Lung for Carbon Monoxide (DLco) ([1]; Cohort 2: 200 mg BID, EOT): 0.985 (5.919) Percent Predicted HGB Corrected DLco | Change From Baseline in Percent Predicted Hemoglobin (HGB) Corrected Diffusing Capacity of Lung for Carbon Monoxide (DLco) ([1]; Cohort 3: 400 mg QD, Cycle 2, Day 1): −5.243 (9.830) Percent Predicted HGB Corrected DLco | Change From Baseline in Percent Predicted Hemoglobin (HGB) Corrected Diffusing Capacity of Lung for Carbon Monoxide (DLco) ([1]; Cohort 3: 400 mg QD, Cycle 3, Day 1): −3.928 (9.492) Percent Predicted HGB Corrected DLco | Change From Baseline in Percent Predicted Hemoglobin (HGB) Corrected Diffusing Capacity of Lung for Carbon Monoxide (DLco) ([1]; Cohort 3: 400 mg QD, Cycle 4, Day 1): 0.278 (9.683) Percent Predicted HGB Corrected DLco | Change From Baseline in Percent Predicted Hemoglobin (HGB) Corrected Diffusing Capacity of Lung for Carbon Monoxide (DLco) ([1]; Cohort 3: 400 mg QD, Cycle 5, Day 1): −4.111 (9.138) Percent Predicted HGB Corrected DLco | Change From Baseline in Percent Predicted Hemoglobin (HGB) Corrected Diffusing Capacity of Lung for Carbon Monoxide (DLco) ([1]; Cohort 3: 400 mg QD, Cycle 6, Day 1): −3.143 (10.385) Percent Predicted HGB Corrected DLco | Change From Baseline in Percent Predicted Hemoglobin (HGB) Corrected Diffusing Capacity of Lung for Carbon Monoxide (DLco) ([1]; Cohort 3: 400 mg QD, Cycle 7, Day 1): −4.275 (11.464) Percent Predicted HGB Corrected DLco | Change From Baseline in Percent Predicted Hemoglobin (HGB) Corrected Diffusing Capacity of Lung for Carbon Monoxide (DLco) ([1]; Cohort 3: 400 mg QD, Cycle 8, Day 1): −3.787 (11.983) Percent Predicted HGB Corrected DLco | Change From Baseline in Percent Predicted Hemoglobin (HGB) Corrected Diffusing Capacity of Lung for Carbon Monoxide (DLco) ([1]; Cohort 3: 400 mg QD, Cycle 9, Day 1): −2.540 (11.897) Percent Predicted HGB Corrected DLco | Change From Baseline in Percent Predicted Hemoglobin (HGB) Corrected Diffusing Capacity of Lung for Carbon Monoxide (DLco) ([1]; Cohort 3: 400 mg QD, Cycle 10, Day 1): 1.328 (8.887) Percent Predicted HGB Corrected DLco | Change From Baseline in Percent Predicted Hemoglobin (HGB) Corrected Diffusing Capacity of Lung for Carbon Monoxide (DLco) ([1]; Cohort 3: 400 mg QD, Cycle 11, Day 1): −2.720 (10.920) Percent Predicted HGB Corrected DLco | Change From Baseline in Percent Predicted Hemoglobin (HGB) Corrected Diffusing Capacity of Lung for Carbon Monoxide (DLco) ([1]; Cohort 3: 400 mg QD, Cycle 12, Day 1): −1.378 (6.364) Percent Predicted HGB Corrected DLco | Change From Baseline in Percent Predicted Hemoglobin (HGB) Corrected Diffusing Capacity of Lung for Carbon Monoxide (DLco) ([1]; Cohort 3: 400 mg QD, Cycle 13, Day 1): 2.091 (13.290) Percent Predicted HGB Corrected DLco | Change From Baseline in Percent Predicted Hemoglobin (HGB) Corrected Diffusing Capacity of Lung for Carbon Monoxide (DLco) ([1]; Cohort 3: 400 mg QD, Cycle 14, Day 1): 0.309 (11.651) Percent Predicted HGB Corrected DLco | Change From Baseline in Percent Predicted Hemoglobin (HGB) Corrected Diffusing Capacity of Lung for Carbon Monoxide (DLco) ([1]; Cohort 3: 400 mg QD, Cycle 15, Day 1): −5.309 (11.514) Percent Predicted HGB Corrected DLco | Change From Baseline in Percent Predicted Hemoglobin (HGB) Corrected Diffusing Capacity of Lung for Carbon Monoxide (DLco) ([1]; Cohort 3: 400 mg QD, Cycle 16, Day 1): −6.840 (15.053) Percent Predicted HGB Corrected DLco | Change From Baseline in Percent Predicted Hemoglobin (HGB) Corrected Diffusing Capacity of Lung for Carbon Monoxide (DLco) ([1]; Cohort 3: 400 mg QD, Cycle 17, Day 1): −10.865 (13.346) Percent Predicted HGB Corrected DLco | Change From Baseline in Percent Predicted Hemoglobin (HGB) Corrected Diffusing Capacity of Lung for Carbon Monoxide (DLco) ([1]; Cohort 3: 400 mg QD, Cycle 18, Day 1): −3.174 (3.106) Percent Predicted HGB Corrected DLco | Change From Baseline in Percent Predicted Hemoglobin (HGB) Corrected Diffusing Capacity of Lung for Carbon Monoxide (DLco) ([1]; Cohort 3: 400 mg QD, Cycle 19, Day 1): −2.020 (2.436) Percent Predicted HGB Corrected DLco | Change From Baseline in Percent Predicted Hemoglobin (HGB) Corrected Diffusing Capacity of Lung for Carbon Monoxide (DLco) ([1]; Cohort 3: 400 mg QD, Cycle 20, Day 1): −13.517 (5.936) Percent Predicted HGB Corrected DLco | Change From Baseline in Percent Predicted Hemoglobin (HGB) Corrected Diffusing Capacity of Lung for Carbon Monoxide (DLco) ([1]; Cohort 3: 400 mg QD, Cycle 21, Day 1): −12.354 (12.800) Percent Predicted HGB Corrected DLco | Change From Baseline in Percent Predicted Hemoglobin (HGB) Corrected Diffusing Capacity of Lung for Carbon Monoxide (DLco) ([1]; Cohort 3: 400 mg QD, Cycle 22, Day 1): −17.222 (16.947) Percent Predicted HGB Corrected DLco | Change From Baseline in Percent Predicted Hemoglobin (HGB) Corrected Diffusing Capacity of Lung for Carbon Monoxide (DLco) ([1]; Cohort 3: 400 mg QD, Cycle 23, Day 1): −2.219 (10.614) Percent Predicted HGB Corrected DLco | Change From Baseline in Percent Predicted Hemoglobin (HGB) Corrected Diffusing Capacity of Lung for Carbon Monoxide (DLco) ([1]; Cohort 3: 400 mg QD, Cycle 24, Day 1): −11.430 (—) Percent Predicted HGB Corrected DLco | Change From Baseline in Percent Predicted Hemoglobin (HGB) Corrected Diffusing Capacity of Lung for Carbon Monoxide (DLco) ([1]; Cohort 3: 400 mg QD, Cycle 25, Day 1): −13.392 (—) Percent Predicted HGB Corrected DLco | Change From Baseline in Percent Predicted Hemoglobin (HGB) Corrected Diffusing Capacity of Lung for Carbon Monoxide (DLco) ([1]; Cohort 3: 400 mg QD, Cycle 27, Day 1): −11.154 (—) Percent Predicted HGB Corrected DLco | Change From Baseline in Percent Predicted Hemoglobin (HGB) Corrected Diffusing Capacity of Lung for Carbon Monoxide (DLco) ([1]; Cohort 3: 400 mg QD, Cycle 29, Day 1): 8.613 (—) Percent Predicted HGB Corrected DLco | Change From Baseline in Percent Predicted Hemoglobin (HGB) Corrected Diffusing Capacity of Lung for Carbon Monoxide (DLco) ([1]; Cohort 3: 400 mg QD, Cycle 31, Day 1): 10.833 (—) Percent Predicted HGB Corrected DLco | Change From Baseline in Percent Predicted Hemoglobin (HGB) Corrected Diffusing Capacity of Lung for Carbon Monoxide (DLco) ([1]; Cohort 3: 400 mg QD, Cycle 35, Day 1): 5.088 (—) Percent Predicted HGB Corrected DLco | Change From Baseline in Percent Predicted Hemoglobin (HGB) Corrected Diffusing Capacity of Lung for Carbon Monoxide (DLco) ([1]; Cohort 3: 400 mg QD, Cycle 36, Day 1): 10.372 (—) Percent Predicted HGB Corrected DLco | Change From Baseline in Percent Predicted Hemoglobin (HGB) Corrected Diffusing Capacity of Lung for Carbon Monoxide (DLco) ([1]; Cohort 3: 400 mg QD, Cycle 39, Day 1): 5.902 (—) Percent Predicted HGB Corrected DLco | Change From Baseline in Percent Predicted Hemoglobin (HGB) Corrected Diffusing Capacity of Lung for Carbon Monoxide (DLco) ([1]; Cohort 3: 400 mg QD, EOT): −10.371 (14.208) Percent Predicted HGB Corrected DLco | inhibition of P-gp [2]: inhibits
